Like-named read-outs stand apart in the source and are kept apart here.
How the values were obtained:
H292 = test: MTT cell viability assay, H292; assay type: cell-based, human; details: Homo sapiens, MTT, value (95% CI), read-out: CC50 (µM) (CI) H292
Method: (§1) The cytotoxic activity of compounds 3–13 was determined based on an MTT assay against different human tumor cell lines, using LASSBio-1586 (2), LASSBio-1735 (3), CA-4 (1) and pelitinib as standards (Table 2). To determine the cytotoxic selectivity index, compounds were also evaluated toward human lymphocytes (Table 3).
(§2) The target compounds were tested (0.0001–100 µM) for cytotoxic activity against selected human cancer cell lines, such as HL-60 (acute promyelocytic leukemia), MCF-7 (mammary adenocarcinoma), PC-3 (prostate adenocarcinoma), H1975 (non-small cell lung cancer—EGFR^L858R+T790M), PC-9 (non-small cell lung cancer—EGFR^L858R) H292 (mucoepidermoid pulmonary carcinoma—EGFR wild type), LoVo (colorectal adenocarcinoma—EGFRwild type) and GM16000 (lymphocyte). All the human cancer cell lines were purchased from Cell Bank of Rio de Janeiro—BCRJ. They were cultured in RPMI 1640 medium with 10% (v/v) FBS, 2 mM glutamine, at 37 °C in a humidified incubator containing 5% CO2.
(§3) The cytotoxicity of the compounds was evaluated by the MTT assay. […] For lymphocytic lines, a density of 0.3 × 10^6 cells/mL was used. Afterwards they were treated with varying concentrations of the target compounds 2–12 (0.0001–100 µM), CA-4 (1) and pelitinib at 37 °C, in triplicate. The medium was incubated with 20 μL of 5 mg/mL MTT solution for 3 h in a humidified incubator containing 5% CO2 [11].
(§4) The purple-colored formazan crystals formed in the wells were dissolved in DMSO and their absorbance was measured at 595 nm with a microplate reader (SpectraMax M5, Molecular Devices).

[1] = MTT cell viability assay, GM16000 lymphocytes; assay type: cell-based; details: GM16000 lymphocyte cells (non-tumor), human lymphocytes, value (95% CI)
LoVo [2] = test: MTT cell viability assay, LoVo; assay type: cell-based; details: Homo sapiens, 48 h, value (95% CI)
LoVo [3] = test: MTT cell viability assay, LoVo; assay type: cell-based; details: Homo sapiens, MTT, 72 h, value (95% CI), read-out: CC50 (µM) (CI) LoVo
Method: as §1, §2
(§5) The cytotoxicity of the compounds was evaluated by the MTT assay. The cell lines were cultured in 96 well plates for 72 h with a density of 0.1 × 10^5 cells/mL to 0.7 × 10^5 cells/mL to adherent cell lines. For lymphocytic lines, a density of 0.3 × 10^6 cells/mL was used. Afterwards they were treated with varying concentrations of the target compounds 2–12 (0.0001–100 µM), CA-4 (1) and pelitinib at 37 °C, in triplicate. The medium was incubated with 20 μL of 5 mg/mL MTT solution for 3 h in a humidified incubator containing 5% CO2 [11].
as §4

PC-9 = test: MTT cell viability assay, PC-9; assay type: cell-based, human; details: Homo sapiens, MTT, value (95% CI), read-out: CC50 (µM) (CI) PC-9
Method: as §1, §2, §3, §4

H1975 cells [4] = test: Immunofluorescence of β-tubulin / microtubules; assay type: cell-based, human; details: H1975, 48 h, CA-4 0.3 µM, vincristine 0.5 µM, taxol 0.1 µM, LASSBio-1586 10 µM, LASSBio-1735 0.5 µM, LASSBio-2070 4.5 µM, LASSBio-2074 20 µM
Method: Antitubulin agents have been broadly classified into destabilizing or stabilizing agents, based on their interference with the dynamic balance of polymerization or depolymerization of microtubules. […] CA-4 (1, 0.3 µM), vincristine (0.5 µM) and taxol (0.1 µM) were used as standard controls.
After incubation, cells were rinsed with PBS and fixed with 4% paraformaldehyde in PBS for 10 min at room temperature. They were then permeabilized with 0.5% Triton-X 100 in PBS 3 times for 10 min. The same solution was used for all subsequent washing steps. Cells were incubated with an anti-beta-tubulin antibody for 1 h at 37 °C. After incubation, cells were washed for 30 min and incubated with Alexa Fluor® 488, conjugated secondary antibody for 1 h at 37 °C, and nuclei were labeled with DAPI (0.1 mg/mL in 0.9% NaCl).
Live cultured cells grown in coverslips were mounted in Prolong Gold solution (Molecular Probes, USA) and were imaged on a Leica TCS SPE confocal microscope (Leica Microsystems, Germany) using 63x 1.3 N.A. oil immersion and the images acquired by the LAS X software. Cell morphology, focusing on the microtubules was analyzed, qualitatively, using the public domain NIH ImageJ Program (developed at the National Institutes of the USA Health and available on the internet at http://imagej.nih.gov/ij/ (accessed on 1 September 2021).

PC-3 = test: MTT cell viability assay, PC-3; assay type: cell-based; details: Homo sapiens, PC-3; MTT, 72 h; value (95% CI); read-out: CC50 (µM) (CI) PC-3
Method: as §1, §2, §5, §4

H1975 cells [5] = test: Cell cycle analysis by flow cytometry (Guava Muse Cell Cycle Kit); assay type: cell-based, human; details: H1975, 48 h of treatment; CA-4 0.04 µM, LASSBio-1586 2.0 µM, LASSBio-1735 0.08 µM, LASSBio-2070 3.0 µM, LASSBio-2074 1.5 µM; vs DMSO 0.1%
Method: Changes in the cell cycle are important aspect in tumorigenesis. Therefore, the identification of the steps related to inhibition of cell multiplication is an important process during the discovery of new antitumoral drug candidates. […] Flow cytometry was used for cell cycle analysis to estimate the percentages of a cell population in the different phases of the cell cycle. The analysis was performed using the lung cancer cell line H1975 treated with CA-4 (1, 0.04 µM), LASSBio-1586 (2, 2.0 µM), LASSBio-1735 (3, 0.08 µM), LASSBio-2070 (10, 3.0 µM) and LASSBio-2074 (11, 1.5 µM).
Flow cytometry was applied to help elucidate the mechanism of action of the studied compounds, both to verify the cell cycle phase and to verify the action on EGFR protein kinase.
The anti-tubulin effect was evaluated by seeding H1975, H292 and PC-9 into 6-well plates at a density of 2 × 10^5 per well. […] Cells were harvested and stained according to the protocols of The Guava Muse® Cell Cycle Kit (MCH100106) to quantitatively measure the percentage of cells in the G2/M phases of the cell cycle and the EGFR-RTK Activation Dual Detection Kit (MCH200102) (Luminex®) to measure EGFR phosphorylation in relation to total EGFR expression in the cell population, according to the manufacturer’s instructions for use in test kits using a Guava Muse® Cell Analyzer (Luminex®). Each experiment was performed at least three times independently.

| Structure (SMILES) | CC50 (H292; NCI-H292, 48 h, 48 h) [µM] | CC50 (H292; NCI-H292, 72 h, 72 h) [µM] | CC50 at 48 h [1] [µM] | CC50 (LoVo [2]) [µM] | CC50 (LoVo [3]) [µM] | CC50 (PC-9; PC-9, 48 h, 48 h) [µM] | CC50 (PC-9; PC-9, 72 h, 72 h) [µM] | cell morphology after treatment (H1975 cells [4]) | effect on microtubules (stabilizing / destabilizing profile) (H1975 cells [4]) | CC50 (PC-3) [µM] | cell cycle distribution (G0/G1, S, G2/M) (H1975 cells [5]) | effect on microtubules (stabilizing / destabilizing profile) (H1975 cells [4]; listed as 3 (LASSBio-1735)) | effect on microtubules (stabilizing / destabilizing profile) (H1975 cells [4]; listed as 2 (LASSBio-1586)) |
| --- | --- | --- | --- | --- | --- | --- | --- | --- | --- | --- | --- | --- | --- |
| CCOC(=O)CN(/N=C/c1ccccc1)C(=O)c1cc(OC)c(OC)c(OC)c1 [LASSBio-2074 (11), Ethyl (E)-N-(benzylideneamino)-N-(3,4,5-trimethoxybenzoyl)glycinate] | 0.593 | 0.75 | 3.91 | 2.64 | 0.106 | 1.41 | 0.202 | more spread-out morphology | cell morphology similar to microtubule-stabilizing drugs | 1.36 | increased cells in phase G2/M | – | – |
| COc1cc(C(=O)N(C)/N=C/c2ccccc2)cc(OC)c1OC [LASSBio-1735 (3), (E)-N’-benzylidene-3,4,5-trimethoxy-N-methylbenzohydrazide] | 0.152 | 0.25 | 0.059 | 0.479 | 0.149 | 1.34 | 0.09 | more spread-out morphology | cell morphology similar to microtubule-stabilizing drugs | 0.201 | increased cells in phase G2/M | microtubule destabilizing behavior | – |
| COc1cc(C(=O)N(Cc2ccccc2)/N=C/c2ccccc2)cc(OC)c1OC [LASSBio-2070 (10), (E)-N-benzyl-N’-benzylidene-3,4,5-trimethoxybenzohydrazide] | 0.147 | 0.883 | 0.935 | 2.12 | 0.208 | 0.244 | 0.337 | rounded shape | typical response of microtubule destabilizing agents | 0.361 | increased cells in phase G2/M | – | – |
| COc1cc(C(=O)N/N=C/c2ccccc2)cc(OC)c1OC [LASSBio-1586 (2), (E)-N’-benzylidene-3,4,5-trimetoxybenzohydrazide] | 2.19 | 1.4 | 0.763 | 1.72 | 0.039 | 0.94 | 0.587 | more spread-out morphology | cell morphology similar to microtubule-stabilizing drugs | 1.62 | increased cells in phase G2/M | – | microtubule destabilizing behavior |

Reference: paper PMC9394307, “Discovery of Putative Dual Inhibitor of Tubulin and EGFR by Phenotypic Approach on LASSBio-1586 Homologs” (Pharmaceuticals, 2022)
